These are literature values, as cited in patent publication US20050004106A1, “Combinations of GABA modulators and anticonvulsants, and atypical antipsychotics” (Pfizer Inc, priority 2003, published 2005).

A word on the half-life: it is the time needed for the level to fall by half in the phase considered.

The conditions of data set [1]: in vivo.

On to `Cl.O.O=C1Cc2cc(CCN3CCN(c4nsc5ccccc45)CC3)c(Cl)cc2N1` [ziprasidone, 5-[2-[4-(1,2-benzisothiazol-3-yl)piperazin-1-yl]ethyl]-6-chloroindolin-2-one hydrochloride hydrate], for which the protein binding result is on record as “extensive”. The half-life in data set [1] is 6 to 7 h.
